Test results: patent publication US4822892A, “N-heterocyclic platinum complexes” (Chugai Seiyaku Kabushiki Kaisha, priority 1984, dated 1989)

What was measured:
[1] = tested on: Colon 26 carcinoma; test: In vivo antitumor activity against Colon 26 carcinoma, single i.p. administration (Experiment 1); set-up: species or system CDF1/Crj strain male mouse; conditions: tumor weighed 10 days after administration
Description: A small piece of Colon 26 tumor (1-2 mm^3) was subcutaneously implanted in a lateral region of abdomen of a CDF1 /Crj strain male mouse (6 weeks old). Four days after the implantation, mice with the almost same size of tumor were divided into groups of 5-6 members each, and each mouse was intraperitoneally administered the test compound. Ten days after the administration, each of the mice was sacrificed, and the tumor was weighed to calculate the growth inhibitory ratio (GIR) by the following equation: [formula] wherein C and T represent the mean weights of tumor of the control group and the treated group, respectively.
Cisplatin (CDDP) which is a known compound was used as a comparison.

[2] = tested on: plasma proteins; test: In vitro binding to plasma proteins (Experiment 3); type: in vitro ADME, SD strain rat; conditions: 37° C., 5 μg/ml of Pt, rat plasma
Method: A solution of the test compound was added to plasma obtained from SD strain rat at a ratio of 1:19 by volume which corresponded to 5 μg/ml of Pt. The mixture was incubated at 37° C. under dark. At a predetermined time, the mixture was sampled, and filtered with a molecular sieve membrane (manufactured by Amico Centriflow PMS) under centrifugation. The Pt content in the filtrate unbound Pt was assayed by an atomic absorption spectrophotometry.

[3] = cited from earlier work
[4] = Test on side-effects: body weight and BUN (Experiment 4); type: in vivo, BDF1/Crj strain male mice
Description: BDF1 /Crj strain male mice (6 weeks old) were intraperitoneally administered the test compound, and 1, 3 and 5 days after the administration, 3 mice were saceificed to determine the body weight and the level of urea nitrogen in blood (abbreviated as BUN).

[5] = tested on: Colon 26 carcinoma; test: In vivo antitumor activity against Colon 26 carcinoma, i.p. on days 4, 6 and 8 (Experiment 2); set-up: species or system CDF1/Crj strain male mouse; conditions: 40 mg/kg i.p. on day 4, 6 and 8 after implantation; tumor weighed day 14
Method: A small piece of Colon 26 tumor (1-2 mm^3) was subcutaneously implanted in a lateral region of abdomen of a CDF1 /Crj strain male mouse (7 weeks old). Four days after the implantation, mice with the almost same size of tumor were divided into groups of 5-6 members each, and each mouse was intraperitoneally administered the test compound on day 4, 6, and 8 after implantation in a dose of 40 mg/kg one day. Fourteen days after the implantation, each mouse was sacrificed, and the tumor thereof was weighed to calculate the GIR (%) by the following equation. [formula] where C and T represent the mean weights of tumor of the control group and the group administered the test compound, respectively.

[6] = 12 mg/kg i.p., 1 day after administration
[7] = 12 mg/kg i.p., 3 days after administration
[8] = 12 mg/kg i.p., 5 days after administration
[9] = 60 mg/kg i.p., 1 day after administration
[10] = 60 mg/kg i.p., 3 days after administration
[11] = 60 mg/kg i.p., 5 days after administration

Compound | GIR (growth inhibitory ratio) ([1]; 40 mg/kg i.p. single) [%] | GIR (growth inhibitory ratio) ([1]; 60 mg/kg i.p. single) [%] | GIR (growth inhibitory ratio) ([1]; 80 mg/kg i.p. single) [%] | GIR (growth inhibitory ratio) ([1]; 120 mg/kg i.p. single) [%] | GIR (growth inhibitory ratio) ([1]; 160 mg/kg i.p. single) | CIR [5] [%] | BUN (urea nitrogen in blood, mean ± SD) [4, 9] [mg/dL] | Body weight (mean ± SD) [4, 9] [g] | BUN (urea nitrogen in blood, mean ± SD) [4, 10] [mg/dL] | Body weight (mean ± SD) [4, 10] [g] | BUN (urea nitrogen in blood, mean ± SD) [4, 11] [mg/dL] | Body weight (mean ± SD) [4, 11] [g] | also measured
[NH2][Pt]([NH2])([Cl])[Cl] [CDDP, cisplatin, reference compound] |  |  |  |  |  |  |  |  |  |  |  |  | GIR (growth inhibitory ratio) ([1]; 4 mg/kg i.p. single): 26%; GIR (growth inhibitory ratio) ([1]; 6 mg/kg i.p. single): 51%; GIR (growth inhibitory ratio) ([1]; 8 mg/kg i.p. single): 62%; GIR (growth inhibitory ratio) ([1]; 12 mg/kg i.p. single): 79%; GIR (growth inhibitory ratio) ([1]; 16 mg/kg i.p. single): died; Percent binding to plasma proteins ([2]; 1 hr incubation): 16%; Percent binding to plasma proteins ([2]; 4 hr incubation): 62%; Percent binding to plasma proteins ([2]; 8 hr incubation): 86%; Percent binding to plasma proteins ([2]; 24 hr incubation): 93%; antitumor activity (in words) ([3]; Rosenberg et al, Nature 222, 385 (1969)): has antitumor activity; nephrotoxicity (in words) ([3]; known platinum complexes including CDDP): very serious nephrotoxicity; BUN (urea nitrogen in blood, mean ± SD) [4, 6]: 23.3 ± 4.7 mg/dL; Body weight (mean ± SD) [4, 6]: 24.6 ± 1.1 g; BUN (urea nitrogen in blood, mean ± SD) [4, 7]: 38.5 ± 28.9 mg/dL; Body weight (mean ± SD) [4, 7]: 22.55 ± 1.1 g; BUN (urea nitrogen in blood, mean ± SD) [4, 8]: 65.2 ± 31.5 mg/dL; Body weight (mean ± SD) [4, 8]: 19.0 ± 1.5 g
NC[C@H]1CCCN1.O=C([O-])C1(C(=O)[O-])CCC1.[Pt+2] [Compound 1, 1,1-cyclobutanedicarboxylate(2-aminomethylpyrrolidine)platinum(II)] | 79 | 87 | 98 | 97 | died | 98 |  |  |  |  |  |  | 
(S)-1,1-cyclobutanedicarboxylate(2-aminomethylpyrrolidine)platinum(II) [Compound 2] | 73 | 88 | 94 | 98 | died | 99 | 20.0 ± 2.6 | 23.1 ± 1.4 | 17.7 ± 3.1 | 19.9 ± 1.6 | 15.4 ± 5.5 | 17.9 ± 1.1 | 
cis-dichloro-trans-dihydroxy(2-aminomethylazetidine)platinum(IV) [Compound 19] | 60 | 77 | 85 | 92 | 95% |  |  |  |  |  |  |  | 
(R)-1,1-cyclobutanedicarboxylate(2-aminomethylpyrrolidine)platinum(II) [Compound 3] | 70 | 85 | 90 | 95 | died | 95 | 18.3 ± 3.1 | 23.4 ± 1.5 | 13.8 ± 1.8 | 20.1 ± 1.2 | 13.8 ± 7.6 | 17.5 ± 0.7 | 
